Assay results: paper PMC11353420, “Anti-Inflammatory, Cytotoxic, and Genotoxic Effects of Soybean Oligopeptides Conjugated with Mannose” (Foods, 2024)

Assays:
COX-2 = COX-2 protein level by immunoblotting in LPS-treated RAW 264.7; type: cell-based, murine; conditions: 100, 200, 400 µg/mL, LPS 1 µg/mL 24 h
Procedure: RAW 264.7 macrophage cells were pretreated with various concentrations of the oligopeptide and its conjugated forms (100, 200, 400 µg/mL) for an hour and then incubated with LPS (1 µg/mL) for a further 24 h (at 37 °C in a 5% CO2 humidified atmosphere). The cells were then collected to investigate the iNOS and COX-2 protein levels. Cell lysate was prepared to obtain the protein samples. The samples were subjected to 10% sodium dodecyl sulfate polyacrylamide gel electrophoresis (SDS-PAGE). The separated proteins were electrically transferred to a nitrocellulose membrane. The target proteins were probed with specific antibodies, including anti-COX-2 antibody (Cell signaling, Danvers, MA, USA), anti-iNOS antibody (Merck, Rahway, NJ, USA), and anti-β-actin antibody (Sigma, St. Louis, MO, USA). Protein detection was performed using a chemiluminescence reagent (Bio-Rad Laboratories, Watford, UK).

[1] = SRB cytotoxicity assay, RAW 264.7; conditions: mouse
Procedure: (§1) The cells were maintained in a 5% CO2 humidified atmosphere (CO2 incubator, Thermo Scientific, Waltham, MA, USA) at 37 °C and sub-cultured every 3 days.
(§2) The cytotoxicity of the oligopeptide and its conjugated forms on HepG2, HEK293, LX-2, and RAW 264.7 cells, pre- and mature 3T3-L1 adipocytes, and hPBMCs was analyzed by a sulforhodamine (SRB) assay to obtain their non-toxic concentration for further experiments and as screening data for their in vitro safety. The cells were plated for 12 h in 96-well plates and then treated with the oligopeptide and its conjugated sugar at a concentration of 0–1000 µg/mL for 48 h. Dimethyl sulfoxide (DMSO) was used as a vehicle control (the untreated control). At the indicated time, the cells were then fixed and subjected to an SRB assay. The absorbance was measured at 510 nm by spectrophotometry (Gen5, BioTek, Winooski, VT, USA), and the cell viability was calculated as the ratio of the treatment versus untreated control. The data are represented as the mean ± standard deviation of three replicates and are expressed relative to the untreated control. The percentage of cell survival was calculated as follows:% cell survival = (Abs_extract/Abs_control) × 100

[2] = system: RAW 264.7 murine macrophage cell line; test: SRB cytotoxicity assay, RAW 264.7; conditions: Mus musculus, RAW264.7, 48 h
Procedure: as §1, §2

IL-6 = IL-6 secretion by ELISA in LPS-treated RAW 264.7; type: cell-based, murine; conditions: 100, 200, 400 µg/mL, LPS 1 µg/mL 24 h
Procedure: RAW 264.7 macrophage cells were pretreated with various concentrations of the oligopeptide and its conjugated forms (100, 200, 400 µg/mL) for an hour and then incubated with LPS (1 µg/mL) for further 24 h at 37 °C in a 5% CO2 humidified atmosphere. Then, a sandwich Enzyme Link Immuno-Sorbent Assay was carried out in accordance with the manufacturer’s protocols (BioLegend ELISA MAXTM Deluxe Set, San Diego, CA, USA) to measure TNF-α or IL-6 protein levels in the condition medium.

Structure (SMILES): OC[C@H]1OC(O)[C@@H](O)[C@@H](O)[C@@H]1O (stereo partly drawn) [Man, D-mannose]
- effect on COX-2 protein level (COX-2): did not affect
- IC20 at 48 h [1]: > 1000 µg/mL
- IC50 [2]: > 1000 µg/mL
- effect on level of IL-6 (IL-6): did not alter
